pIC50: −log10 of the molar value.
Columns and labels:
Type in all cases: cell-based
[1] = test system: nucleoside uptake (3H-Thymidine); assay: Rel.Uptake: nucleoside uptake, single concentration assay, cell line as indicated in each table; details: response relative to DMSO
Protocol: (§1) Nucleoside Uptake Assay (uptake). Nuceloside uptake assays were performed with using 3H-Thymidine as described in Guo et al. (2018) Nat. Chem. 11:254-63. Specific cell lines are indicated in each assay and cultured in complete growth media. Activity is scored according to the IC50 values relative to DMSO control. “Low” indicates an IC50 greater than 600 nM, “Medium” indicates an IC50 between 300 nM and 600 nM “High” indicates an IC50 less than 300 nM. “Rel.Uptake” refers to uptake activity characterization relative to a single concentration assay. “Low” indicates a response greater than 0.6 times the activity relative to DMSO, “Medium” indicates a response between 0.6 and 0.3 times the activity relative to DMSO, “High” indicates a response less than 0.3 times the activity relative to DMSO.

293T = assay: Nucleoside uptake assay (uptake) using 3H-Thymidine, 293T; details: 293T cells
Protocol: as §1

[2] = test system: nucleoside uptake (3H-Thymidine); assay: Nucleoside uptake assay (uptake) using 3H-Thymidine, IC50, cell line as indicated in each table (none given in Table 8); details: 3H-Thymidine uptake; cell line not given
Protocol: as §1

[3] = IC50 class relative to DMSO control

| SMILES | Rel. Uptake, 293T ([1]; 293T, nucleoside uptake) | Uptake, 293T (293T; [3]) | other results |
| --- | --- | --- | --- |
| COc1ccc(CC[C@H]2OC(=O)[C@@H]3CCCCN3C(=O)C(=O)C(C)(C)COC(=O)C=CCCN(C)C(=O)[C@H](CC(C)C)N(C)C(=O)[C@H]3CCCN3C(=O)[C@H](Cc3ccc(CNC(=O)CN(C)C)cc3)NC(=O)[C@H](c3ccccc3)NC(=O)CCC(=O)Nc3cccc2c3)cc1OC [Compound 1587] | Low (“Low” indicates a response greater than 0.6 times the activity relative to DMSO) |  | pIC50 (293T; Table 14): < 6.22 |
| COc1ccc(CC[C@H]2NC(=O)[C@@H]3CCCCN3C(=O)C(=O)C(C)(C)COC(=O)C=CCCN(C)C(=O)[C@H](CC(C)C)N(C)C(=O)[C@H]3CCCN3C(=O)[C@H](Cc3ccccc3)N(C)C(=O)C(c3ccccc3)NC(=O)CCC(=O)Nc3cccc2c3)cc1OC (some centres unmarked) [Compound 1557] | high | high |  |
| COc1ccc(CC[C@H]2OC(=O)[C@@H]3CCCCN3C(=O)C(=O)C(C)(C)COC(=O)C=CCCN(C)C(=O)[C@H](CC(C)C)N(C)C(=O)[C@H]3CCCN3C(=O)[C@H](CC(=O)OC(C)(C)C)N(C)C(=O)C(c3ccccc3)NC(=O)CCC(=O)Nc3cccc2c3)cc1OC (some centres unmarked) [Compound 1066] |  | high | Rel. Uptake, 293T ([1]; 293T): high |
| COc1ccc(CC[C@H]2OC(=O)[C@@H]3CCCCN3C(=O)C(=O)C(C)(C)COC(=O)C=CCCN(C)C(=O)[C@@H](c3ccccc3)NC(=O)[C@H](Cc3ccc(OP(C)(C)=O)cc3)NC(=O)[C@H]3CCCN3C(=O)[C@H](CC(C)C)N(C)C(=O)COc3cccc2c3)cc1OC [Compound 1520] | low |  | Uptake, 293T (293T; Table 16): low |
| COc1ccc(CC[C@H]2OC(=O)[C@@H]3CCCCN3C(=O)C(=O)C(C)(C)COC(=O)C=CCCN(C)C(=O)[C@H](CC(C)C)N(C)C(=O)[C@H]3CCCN3C(=O)[C@H](Cc3ccc(O)cc3)NC(=O)C(c3ccccc3)NC(=O)CCC(=O)Nc3cccc2c3)cc1OC (some centres unmarked) [Compound 1522] | high | high |  |
| COc1ccc(CC[C@H]2OC(=O)[C@@H]3CCCCN3C(=O)C(=O)C(C)(C)COC(=O)C=CCCN(C)C(=O)[C@H](CC(C)C)N(C)C(=O)[C@H]3CCCN3C(=O)[C@H](Cc3ccc(CC(=O)NCc4ccccc4)cc3)NC(=O)[C@H](c3ccccc3)NC(=O)CCC(=O)Nc3cccc2c3)cc1OC [Compound 1590] | High (“High” indicates a response less than 0.3 times the activity relative to DMSO) |  | pIC50 (293T; Table 15): < 6.22 |
| COc1ccc(CC[C@H]2OC(=O)[C@@H]3CCCCN3C(=O)C(=O)C(C)(C)COC(=O)C=CCCN(C)C(=O)[C@H](CC(C)C)N(C)C(=O)[C@H]3CCCN3C(=O)[C@H](Cc3ccc(C(=O)Nc4ccccc4)cc3)NC(=O)[C@H](c3ccccc3)NC(=O)CCC(=O)Nc3cccc2c3)cc1OC [Compound 1559] | medium |  | Uptake, 293T (293T; Table 15): medium |
| COc1ccc(CC[C@H]2OC(=O)[C@@H]3CCCCN3C(=O)C(=O)C(C)(C)COC(=O)C=CCCN(C)C(=O)[C@H](CC(C)C)N(C)C(=O)[C@H]3CCCN3C(=O)[C@H](Cc3ccc(CNC(=O)Cc4ccccc4)cc3)NC(=O)[C@H](c3ccccc3)NC(=O)CCC(=O)Nc3cccc2c3)cc1OC [Compound 1586] | Med |  | Uptake, 293T (293T; Table 14): Med |
| COc1ccc(CC[C@H]2OC(=O)[C@@H]3CCCCN3C(=O)C(=O)C(C)(C)COC(=O)C=CCCN(C)C(=O)[C@H](CC(C)C)N(C)C(=O)[C@H]3CCCN3C(=O)[C@H](Cc3ccc(C(=O)Nc4cccnc4)cc3)NC(=O)[C@H](c3ccccc3)NC(=O)CCC(=O)Nc3cccc2c3)cc1OC [Compound 1562] | low |  | Uptake, 293T (293T; Table 15): low |
| COc1ccc(CC[C@H]2OC(=O)[C@@H]3CCCCN3C(=O)C(=O)C(C)(C)COC(=O)C=CCCN(C)C(=O)[C@H](CC(C)C)N(C)C(=O)[C@H]3CCCN3C(=O)[C@H](Cc3ccc(CNC(=O)c4ccccc4)cc3)NC(=O)[C@H](c3ccccc3)NC(=O)CCC(=O)Nc3cccc2c3)cc1OC [Compound 1585] | High (“High” indicates a response less than 0.3 times the activity relative to DMSO) |  | pIC50 (293T; Table 14): > 6.52 |
| COc1ccc(CC[C@H]2OC(=O)[C@@H]3CCCCN3C(=O)C(=O)C(C)(C)CNC(=O)C=CCCN(C)C(=O)[C@H](CC(C)C)N(C)C(=O)[C@H]3CCCN3C(=O)[C@H](Cc3ccccc3)N(C)C(=O)C(c3ccccc3)NC(=O)CCC(=O)Nc3cccc2c3)cc1OC (some centres unmarked) [Compound 1555] | high | high |  |
| CCCCCCNC(=O)Cc1ccc(C[C@@H]2NC(=O)[C@H](c3ccccc3)NC(=O)CCC(=O)Nc3cccc(c3)[C@@H](CCc3ccc(OC)c(OC)c3)OC(=O)[C@@H]3CCCCN3C(=O)C(=O)C(C)(C)COC(=O)C=CCCN(C)C(=O)[C@H](CC(C)C)N(C)C(=O)[C@H]3CCCN3C2=O)cc1 [Compound 1591] | Med |  | pIC50 (293T; Table 15): < 6.22 |
| COc1ccc(CC[C@H]2OC(=O)[C@@H]3CCCCN3C(=O)C(=O)C(C)(C)COC(=O)/C=C/CCN(C)C(=O)[C@H](C(C)C)N(C)C(=O)[C@@H]3CCCN3C(=O)[C@@H](Cc3ccccc3)N(C)C(=O)[C@H](Cc3ccccc3)NC(=O)CCC(=O)Nc3cccc2c3)cc1OC [Compound 1609] |  |  | pIC50 [2]: 7.26 |
| COc1ccc(CC[C@H]2OC(=O)[C@@H]3CCCCN3C(=O)C(=O)C(C)(C)COC(=O)C=CCCN(C)C(=O)[C@H](CC(C)C)N(C)C(=O)[C@H]3CCCN3C(=O)[C@H](Cc3ccccc3)N(C)C(=O)[C@H](CC(=O)OC(C)(C)C)NC(=O)CCC(=O)Nc3cccc2c3)cc1OC [Compound 1088] |  | low | Rel. Uptake, 293T ([1]; 293T cells): low |
| COc1ccc(CC[C@H]2OC(=O)[C@@H]3CCCCN3C(=O)C(=O)C(C)(C)COC(=O)C=CCCN(C)C(=O)C3(CCCCC3)NC(=O)[C@@H]3CCCN3C(=O)[C@@H](Cc3ccccc3)N(C)C(=O)CNC(=O)COc3cccc2c3)cc1OC [Compound 1627] |  |  | pIC50 [2]: 6.58 |
| COc1ccc(CC[C@H]2OC(=O)[C@@H]3CCCCN3C(=O)C(=O)C(C)(C)COC(=O)/C=C/CCN(C)C(=O)[C@H](C(C)C)N(C)C(=O)[C@@H]3CCCN3C(=O)[C@@H](Cc3ccccc3)N(C)C(=O)CNC(=O)CCC(=O)Nc3cccc2c3)cc1OC [Compound 1605] |  |  | pIC50 [2]: 7.55 |
| COc1ccc(CC[C@H]2OC(=O)[C@@H]3CCCCN3C(=O)C(=O)C(C)(C)COC(=O)/C=C/CCN(C)C(=O)[C@H](C)N(C)C(=O)[C@@H]3CCCN3C(=O)[C@@H](Cc3ccccc3)N(C)C(=O)[C@H](C)NC(=O)COc3cccc2c3)cc1OC [Compound 1619] |  |  | pIC50 [2]: 7.18 |
| COc1ccc(CC[C@H]2OC(=O)[C@@H]3CCCCN3C(=O)C(=O)C(C)(C)COC(=O)C=CCCN(C)NC(c3ccccc3)C(=O)N(C)[C@@H](Cc3ccccc3)C(=O)N3CCC[C@@H]3C(=O)N(C)[C@@H](CC(C)C)C(=O)C(=O)CCOc3cccc2c3)cc1OC (some centres unmarked) [Compound 1556] | low | low |  |
| COc1ccc(CC[C@H]2OC(=O)[C@@H]3CCCCN3C(=O)C(=O)C(C)(C)COC(=O)C=CCCN(C)C(=O)[C@H](CC(C)C)N(C)C(=O)[C@@H]3CCCN3C(=O)[C@@H](Cc3ccccc3)N(C)C(=O)[C@H](C)NC(=O)COc3cccc2c3)cc1OC [Compound 1623] |  |  | pIC50 [2]: 7.98 |
| CC[C@H](C)[C@H]1C(=O)N(C)CC/C=C/C(=O)OCC(C)(C)C(=O)C(=O)N2CCCC[C@H]2C(=O)O[C@H](CCc2ccc(OC)c(OC)c2)c2cccc(c2)NC(=O)CCC(=O)N[C@@H](C)C(=O)N(C)[C@H](Cc2ccccc2)C(=O)N2CCC[C@H]2C(=O)N1C [Compound 1614] |  |  | pIC50 [2]: 7.46 |
| COc1ccc(CC[C@H]2OC(=O)[C@@H]3CCCCN3C(=O)C(=O)C(C)(C)COC(=O)C=CCCN(C)C(=O)[C@H](CC(C)C)N(C)C(=O)[C@H]3CCCN3C(=O)[C@H](Cc3ccc(CC(=O)OC(C)(C)C)cc3)NC(=O)C(c3ccccc3)NC(=O)CCC(=O)Nc3cccc2c3)cc1OC (some centres unmarked) [Compound 1081] |  | medium | Rel. Uptake, 293T ([1]; 293T): medium |
| COc1ccc(CC[C@H]2OC(=O)[C@@H]3CCCCN3C(=O)C(=O)C(C)(C)COC(=O)C=CCCN(C)C(=O)[C@H](CC(C)C)N(C)C(=O)[C@H]3CCCN3C(=O)[C@H](Cc3ccc(NC(=O)Cc4cccnc4)cc3)NC(=O)[C@H](c3ccccc3)NC(=O)CCC(=O)Nc3cccc2c3)cc1OC [Compound 1589] | Low (“Low” indicates a response greater than 0.6 times the activity relative to DMSO) |  | pIC50 (293T; Table 14): < 6.22 |
| COc1ccc(CC[C@H]2OC(=O)[C@@H]3CCCCN3C(=O)C(=O)C(C)(C)COC(=O)C=CCCN(C)C(=O)[C@H](CC(C)C)N(C)C(=O)[C@H]3CCCN3C(=O)[C@H](Cc3ccc(OCc4ccccc4)cc3)NC(=O)C(c3ccccc3)NC(=O)CCC(=O)Nc3cccc2c3)cc1OC (some centres unmarked) [Compound 1082] |  | low | Rel. Uptake, 293T ([1]; 293T): low |
| COc1ccc(CC[C@H]2OC(=O)[C@@H]3CCCCN3C(=O)C(=O)C(C)(C)COC(=O)/C=C/CCN(C)C(=O)[C@H](C(C)C)N(C)C(=O)[C@@H]3CCCN3C(=O)[C@@H](Cc3ccccc3)N(C)C(=O)[C@H](CC(C)C)NC(=O)CCC(=O)Nc3cccc2c3)cc1OC [Compound 1608] |  |  | pIC50 [2]: 7.27 |

Reference: patent US11066416B2, “Rapafucin derivative compounds and methods of use thereof” (The Johns Hopkins University, priority 2016, dated 2021)
